Source: PubChem BioAssay (NCI)
Several values for one entry are separate records, joined by “and”; a condition that tells them apart may be missing. Equal values may be shown once.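 96-well plates; 48 h exposure; 5 concentrations. Endpoints by linear interpolation between flanking doses. Not reached: highest tested concentration assigned. GI50 marks 50% less growth. At the TGI there is no net growth.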

Columns and labels:
Assay in all cases: inhibition of tumour cell growth, NCI panel, 48 h
[1] = test system: A498 renal
[2] = test system: HT29 colon
[3] = test system: LOX IMVI melanoma
[4] = test system: NCI-H522 lung
[5] = test system: OVCAR-8 ovarian
[6] = test system: SF-268 CNS
[7] = test system: SK-MEL-5 melanoma
[8] = test system: SNB-75 CNS
[9] = test system: HOP-92 NSCLC
[10] = test system: RXF 393 renal

COc1ccc(S(=O)(=O)N/N=C(\C)CN2C(=O)c3ccccc3C2=O)cc1
TGI [1]: > 100 µM | TGI [2]: > 100 µM | TGI [3]: > 100 µM | TGI [4]: > 100 µM | TGI [5]: > 100 µM | TGI [6]: > 100 µM | TGI [7]: > 100 µM | TGI [8]: > 100 µM

CS(=O)(=O)CS(=O)CS(=O)CS(=O)CC(NC(=O)CCC(N)C(=O)O)C(=O)O (stereo not given)
TGI [9]: > 100 µM | TGI [2]: > 100 µM | TGI [3]: > 100 µM | TGI [4]: > 100 µM | TGI [5]: > 100 µM | TGI [6]: > 100 µM | TGI [7]: > 100 µM | TGI [8]: > 100 µM

CN(C)CCNC(=O)c1cccc2c1nc(-c1ccccn1)c1ccccc12
TGI [1]: 27.2 µM | TGI [9]: 39.7 µM | TGI [2]: 39.9 µM | TGI [5]: 34.5 µM | TGI [10]: 29.2 µM | TGI [6]: 61.6 µM | TGI [7]: 28.7 µM | TGI [8]: 47.1 µM

COc1ccc(-c2c(C#N)c(N)nc3c2CCCc2ccc(F)cc2-3)cc1OC
GI50 [9]: 4.73 µM | TGI [9]: > 100 µM | GI50 [2]: 1.07 µM | TGI [2]: > 41.3 µM | GI50 [3]: < 0.0422 µM | TGI [3]: 19.6 µM | GI50 [4]: < 0.01 µM | TGI [4]: 33.5 µM | GI50 [5]: 0.419 µM | TGI [5]: > 100 µM | GI50 [10]: 0.0586 µM | TGI [10]: > 82.9 µM | GI50 [6]: 0.0335 µM | TGI [6]: > 100 µM | TGI [7]: 0.483 µM | GI50 [8]: 1.36 µM | TGI [8]: > 100 µM

CC(C)(C)C(=O)OCC(COC(=O)C(C)(C)C)[N+](=O)[O-]
TGI [2]: > 100 µM | TGI [3]: > 100 µM | TGI [4]: 47.3 µM | TGI [5]: > 100 µM | TGI [10]: > 100 µM | TGI [6]: > 100 µM | TGI [8]: > 100 µM

O=[N+]([O-])c1ccc(O)c2ncccc12
GI50 [9]: 19.1 µM and 4.22 µM | TGI [9]: 82.6 µM and 21.3 µM | TGI [2]: > 100 µM and 18.9 µM | TGI [3]: > 100 µM and 13 µM | TGI [5]: > 100 µM and 19.1 µM | TGI [10]: > 100 µM and 18.2 µM | TGI [6]: > 100 µM and 16 µM | TGI [8]: > 100 µM and 26 µM

O=C1c2ccccc2C2(O)Oc3cccc(O)c3C12O (stereo not given)
TGI [1]: > 100 µM | TGI [9]: > 100 µM | TGI [2]: > 100 µM | TGI [3]: > 100 µM | TGI [4]: > 100 µM | TGI [5]: > 100 µM | TGI [6]: > 100 µM | TGI [7]: > 100 µM | TGI [8]: > 100 µM

COc1ccc(/C=C/C(C(=O)O)C(=O)O)cc1
TGI [9]: > 100 µM | TGI [2]: > 100 µM | TGI [3]: 39.5 µM | TGI [4]: > 100 µM | TGI [5]: > 100 µM | TGI [6]: > 100 µM | TGI [7]: > 100 µM

CC1=N/C(=C\c2ccc([N+](=O)[O-])cc2)C(=O)O1
TGI [1]: > 100 µM | TGI [9]: > 100 µM | TGI [2]: > 100 µM | TGI [4]: > 100 µM | TGI [5]: > 100 µM | TGI [10]: > 100 µM | TGI [6]: > 100 µM | TGI [7]: > 100 µM
